Experimental data taken from patent US20230136075A1, “TREATMENT FOR SEPSIS-INDUCED ORGAN DYSFUNCTION” (The Florey Institute of Neuroscience and Mental Health, priority 2020, published 2023).

Tested on: ovine sepsis induced by intravenous infusion of live E. coli
From the text: Using this model, the inventors have investigated the effect of mega dose intravenous vitamin C therapy on various parameters indicative of the progression of sepsis in sheep (Merino ewes, 35-45 kg; 1.5-2.0 years old). Sheep were divided into two groups, a vitamin C (sodium ascorbate) therapy group and a vehicle group as a control. Experimental protocols were approved by the Animal Ethics Committee of the Florey Institute of Neuroscience and Mental Health under guidelines of the National Health and Medical Research Council of Australia.
Preparatory surgical procedures were carried out as described in Lankadeva et al. (2018b). Briefly, two preparatory surgical procedures were performed under general anaesthesia. First, a carotid artery was exteriorised into a skin fold to form a carotid arterial loop to facilitate cannulation for measurement of arterial pressure and heart rate, and for blood sampling. During the same surgical procedure, a flow probe was placed around the pulmonary artery to measure cardiac output. Animals were allowed 3-4 weeks of recovery. Second, a flow probe was implanted around a renal artery to measure renal blood flow, a renal vein was cannulated for blood sampling and fibre optic probes were inserted into the renal cortex, renal medulla (within kidneys) and parietal cortex (brain) to measure tissue perfusion, oxygen tension and temperature.
During the second surgical procedure cannulae were implanted in the carotid artery for arterial pressure measurement and blood sampling and the jugular vein for infusion of fluids, vasopressors, Escherichia coli, sodium ascorbate and blood sampling, and a Foley catheter was inserted into the bladder to collect urine and monitor hourly urine output.
Following three days of recovery from the second surgical procedure, the experimental protocol (see FIG. 1) was initiated in conscious sheep, to avoid the confounding effects of general anaesthesia. Animals daily food and water intake and urine output was measured on a 24-hour basis during the course of the 5-day protocol.
First, a 24-hour baseline period was commenced, which included measurement of systemic haemodynamics, renal and brain perfusion and oxygenation, arterial, central venous and renal venous blood gases and lactate, and urine output. Arterial blood and urine samples were collected at set times during the experimental period.
After establishment of the 24-hour baseline period, gram-negative sepsis was induced by intravenous infusion of live E. coli (isolated from a patient with sepsis at Austin Health) as described in Lankadeva et al. (2018b), administered as a loading (bolus) infusion of 2.8×10^9 colony-forming units (CFU) over 30-minutes followed by a continuous infusion of 1.26×10^9 CFU/h for 30.5 hours. No prophylactic antibiotics, sedative or analgesic agents were administered during this protocol. The description in the following paragraphs is with reference to the protocol as shown schematically in FIG. 1.
At 23 hours of sepsis, when sheep had fulfilled the clinical criteria for sepsis (i.e. established hypotension, tachycardia, fever, lung injury, tachypnoea, hyperlactatemia and stage 1-2 acute kidney injury) animals were resuscitated with 30 mL/kg balanced crystalloid sodium lactate (Hartmann's solution infused at approximately 2500 ml/hr) for 30 mins, from 23-23.5 hours of sepsis.
A blocked randomization design was used to allocate sheep to treatment with sodium ascorbate or vehicle.

[1] = NaHCO3 infusion, two septic sheep
[2] = during the infusion of NaHCO3, two septic sheep

SMILES: O=C([O-])O.[Na+] [NaHCO3, sodium bicarbonate]
- MAP [1]: decreased
- RBF [1]: not reduced
- arterial PO2 [1]: no improvement
- blood pH [1]: large increase
- blood potassium [1]: hypokalemia
- blood sodium [1]: hypernatremia
- creatinine clearance [1]: no reduction in plasma creatinine or increase in creatinine clearance was observed
- heart rate [1]: not reduced
- norepinephrine dose required [1]: increasing doses of norepinephrine were required
- plasma creatinine [1]: no reduction
- renal medullary PO2 [1]: no improvement
- renal medullary perfusion [1]: no improvement
- urine flow [1]: urine flow increased
- body temperature [2]: large increases
- shivering [2]: intermittent shivering
- reproduction of the effects of sodium ascorbate (hypertonic NaHCO3, equal sodium load, 8.4 g/kg over 30 minutes then 8.4 g/kg/hr for 6.5 hours, two septic sheep, data not shown): did not reproduce the effects of sodium ascorbate
